Data as given in US7517902B2, “Substituted indazoles, compositions containing the same, and the preparation and use thereof” (Aventis Pharma S.A., priority 2004, dated 2009).
Structures can show the parent of a compound that is named as a salt.

Assays:
[1] = molecular target: T1, CDK4/cyclin D1 kinase complex (Homo sapiens, UniProt P11802); assay: CDK4/cyclinD1 Flashplate assay in 96-well format; format: biochemical; conditions: read-out: IC 50 CDK4
T1 construct: HA (Hemagglutinin tag) (C); made in house; host or cells: Sf9 insect cells (baculovirus co-infection)
Description: Purification of the CDK4-HA/cyclin D1-(His)6 complex by IMAC (Immobilized Metal Affinity Chromatography):
Two recombinant baculoviruses carrying the human sequences coding respectively for CDK4-HA (C-terminal fusion with the Hemagglutinin tag) and for cyclin D1-(His)6 are used to co-infect Sf9 insect cells. Sixty hours after the beginning of co-infection, the cells are harvested by centrifugation and then frozen at −20° C. until their use. After thawing in buffer A (HEPES 200 mM pH 7.0, NaCl 50 mM, MgCl2 2 mM, imidazole 25 mM, TCEP 1 mM, glycerol 10% (w/v), NaF 1 mM, Na3VO4 1 mM), stirring at 4° C. for 1 h, and centrifugation, the complex present in the lysis supernatant is purified by affinity chromatography on nickel (IMAC) and stored at −80° C.
CDK4/cyclinD1 Flashplate Assay in 96-Well Format.
An assay in 96-well “Flashplate” (scintillation plate) plates coated with streptavidin is used to evaluate the inhibition of the CDK4/cyclin D1 kinase complex by the products of the invention. To perform this test, the biotinylated peptide substrate, a fragment of the pRb protein, (biotinyl-[…]-amide), is dissolved at a concentration of 2 mM in kinase buffer (HEPES/NaOH 50 mM, NaCl 1 mM, MgCl2 5 mM, pH=7.5) to form a stock solution, which is stored at −20° C. in the form of 110 μl aliquots. On the day of the experiment, an aliquot of this solution is thawed and diluted in kinase buffer containing 1 mM of dithiothreitol, added at the time of use, so as to give a final peptide concentration of 2.571 μM. seventy μl of this solution are deposited in each well of the Flashplate plate, to give a final substrate concentration of 1.8 μM during the enzymatic reaction, which is performed in a final volume of 100 μl (cf. below). Intermediate dilutions of inhibitors (products of the invention) at various concentrations are prepared in DMSO from 10 mM stock solutions in separate tubes. In this way dilutions at 1000 μM, 333.3 μM, 111.1 μM, 37.03 μM, 12.35 μM, 4.11 μM and 1.37 μM are produced. One μl of each of these solutions (or 1 μl of DMSO for the controls) is subsequently transferred into the wells of the assay plate. To each well there is subsequently added 19 μl of a solution of a mixture of adenosine triphosphate (ATP) and ATPγ^33P in the kinase buffer at a concentration of 5.26 μM of total ATP and 78.9 μCi/ml of ^33P. The enzymatic reaction is triggered by adding 10 μl per well of a solution of CDK4/cyclin D1 complex at 250 nM in the kinase buffer, containing 1 mM of dithiothreitol (or 10 μl of kinase buffer containing 1 mM of dithiothreitol for the reaction blanks). At the end of the various additions, the final volume in each well is 100 μl, the final substrate concentration is 1.8 μM, the final inhibitor concentrations are 10 μM, 3.33 μM, 1.11 μM, 0.37 μM, 0.123 μM, 0.041 μM and 0.014 μM (depending on the concentration of the intermediate dilution), the final ATP concentration is 1 μM, the final amount of ^33P is 1.5 μCi/well, and the final concentration of CDK4/cyclin D1 complex is 25 nM.
After all of the reagents have been added, the assay plate is incubated at 30° C. with orbital stirring at 650 rpm. Following incubation, the plate is washed three times with 300 μl per well of PBS buffer (phosphate buffered saline, pH=7.4 with neither calcium nor magnesium, reference 10010-015, Gibco BRL). The incorporation of ^33P into the substrate peptide is measured by scintillation counting using a Packard Topcount.NXT instrument. The inhibitory activity of the products of the invention is evaluated by determining the concentration of inhibitor resulting in a 50% reduction in the enzymatic activity (IC50).

human Tie2 = molecular target: T2, human Tie2 (Homo sapiens, UniProt Q02763); assay: Tie2 assay of PLC phosphorylation (FlashPlate); format: biochemical; conditions: read-out: IC 50 TIE2
T2 construct: amino acids of the intracellular domain 776-1124; made in house
T2 sequence (Q02763 776-1124): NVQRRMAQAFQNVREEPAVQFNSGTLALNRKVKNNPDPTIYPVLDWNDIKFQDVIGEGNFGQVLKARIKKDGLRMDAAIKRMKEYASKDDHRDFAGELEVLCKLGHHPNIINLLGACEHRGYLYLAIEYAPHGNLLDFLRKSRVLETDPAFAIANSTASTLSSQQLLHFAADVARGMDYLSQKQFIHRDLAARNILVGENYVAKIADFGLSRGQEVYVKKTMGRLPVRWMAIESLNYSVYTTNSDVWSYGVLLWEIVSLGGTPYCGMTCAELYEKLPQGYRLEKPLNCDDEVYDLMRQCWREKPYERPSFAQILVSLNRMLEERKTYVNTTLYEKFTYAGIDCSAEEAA

T1 sequence (P11802 whole entry): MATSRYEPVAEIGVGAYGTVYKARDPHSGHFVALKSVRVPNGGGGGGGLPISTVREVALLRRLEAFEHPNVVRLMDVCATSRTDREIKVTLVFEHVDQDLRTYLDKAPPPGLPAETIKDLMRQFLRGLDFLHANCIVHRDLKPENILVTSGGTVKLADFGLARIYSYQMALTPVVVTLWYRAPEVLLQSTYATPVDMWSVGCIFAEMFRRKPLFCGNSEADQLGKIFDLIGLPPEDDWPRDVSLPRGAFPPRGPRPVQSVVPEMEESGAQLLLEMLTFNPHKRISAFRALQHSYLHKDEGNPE
T1 sequence (P24385 whole entry partner): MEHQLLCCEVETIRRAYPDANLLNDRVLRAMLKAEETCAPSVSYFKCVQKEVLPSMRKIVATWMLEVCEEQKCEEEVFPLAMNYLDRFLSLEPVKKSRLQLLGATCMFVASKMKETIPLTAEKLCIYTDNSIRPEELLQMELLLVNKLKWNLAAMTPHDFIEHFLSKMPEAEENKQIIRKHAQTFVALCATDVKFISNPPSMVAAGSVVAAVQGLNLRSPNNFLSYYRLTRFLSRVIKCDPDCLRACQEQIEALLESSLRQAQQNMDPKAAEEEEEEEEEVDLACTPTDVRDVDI

IC50 [1]	IC50 (human Tie2)	Compound
132 nM	15 nM	Nc1n[nH]c2cc(-c3ccc(NS(=O)(=O)c4cccc(Cl)c4Cl)cc3)ccc12 [Example 2, 1-[4-(3-Amino-1H-indazol-6-yl)phenyl]-2,3-dichlorobenzenesulfonamide hydrochloride]
145 nM	4 nM	O=C(Nc1n[nH]c2cc(-c3ccc(NS(=O)(=O)c4cccc(Cl)c4Cl)cc3)ccc12)c1ccsc1 [Example 3, 3-Thiophenecarboxylic acid {6-[4-(2,3dichlorobenzenesulfonylamino)phenyl]-1H-indazol-3-yl}amide]
55 nM	2 nM	O=C(Nc1n[nH]c2c(F)c(-c3ccc(NS(=O)(=O)c4cccc(Cl)c4Cl)cc3)ccc12)c1ccsc1 [Example 5, 3-Thiophenecarboxylic acid {6-[4-(2,3-dichlorobenzenesulfonylamino)-7-fluorophenyl]-1H-indazol-3-yl}amide]
117 nM	10 nM	Nc1n[nH]c2c(F)c(-c3ccc(NS(=O)(=O)c4cccc(Cl)c4Cl)cc3)ccc12 [Example 8, 1-[4-(3-Amino-1H-indazol-6-yl)-7-fluorophenyl]-2,3-dichlorobenzenesulfonamide hydrochloride]
